This is an account of results in US20100331310A1, “BICYCLOAMINE DERIVATIVES” (priority 2008, published 2010).

Molecules are shown by their SMILES. pIC50: −log10 of the molar value. Where a name gives a salt, the structure may show the parent alone. Where only a bound is given, the exact number is not on record here.

Assay [1] deals with sodium channels in cultured rat hippocampus. The note with it: cited from earlier work.
Assay [2] deals with ectopic firing. As to conditions: as described in Patent document 1; cited from earlier work.
Assay [3] has as its target T1, human Nav1.8 (Homo sapiens, UniProt Q9Y5Y9).
T1 construct: expressed in transfected cells
Put plainly: Membrane potential increase-inhibitory action on TTX-resistant Na channels in cells expressing human Nav1.8 gene (deltamethrin stimulation). In kind it is cell-based. On the procedure: A cell line expressing human Nav1.8 gene was used to evaluate the pharmacological effects of compounds of the invention.
1. A membrane potential-sensitive dye containing TTX (final concentration: 0.25 μM) was added to cells expressing human Nav1.8, prior to incubation at 37° C. for 30-60 minutes. 2. The test compound was added to the cells, and the mixture was stationed for 15-30 minutes at room temperature while shielded from light. 3. Deltamethrin (final concentration: 50 μM), a Nav1.8 channel stimulant, was added, and the change in fluorescence intensity due to increased membrane potential was measured.
The Nav1.8 channel inhibition of the test compound was determined by the following equation.

Assay [4] deals with rats that exhibited ectopic firing (left saphenous nerve). Put plainly: Suppression of ectopic firing in rats with cut saphenous nerve. The note with it: rat, urethane anesthesia, administration via catheter in right cervical vein; number of firings every 10 seconds; read-out: Suppressing activity on ectopic firing, ED50. In kind it is in vivo. On the procedure:
(1) The suppressing effect on ectopic firing was evaluated by the following method, with reference to Burchiel, K J., Exp. Neurol., 102, 249-253 (1988). […] The left saphenous nerve was exposed under urethane anesthesia (1 g/kg body weight), and an area approximately 1 cm adjacent to the cutting site was removed from the surrounding tissue. A catheter was inserted into the right cervical vein for administration of the compound. (3) The removed nerve was placed on a platinum hook electrode and covered with liquid paraffin to avoid drying of the nerve. The electrode was connected to a microelectrode amp, and the change in potential was recorded on a computer from an oscilloscope, via an A/D converter. The recorded nerve firing was evaluated based on the number of firings every 10 seconds, using analysis software (AcqKnowledge).

T1 sequence (Q9Y5Y9 whole entry): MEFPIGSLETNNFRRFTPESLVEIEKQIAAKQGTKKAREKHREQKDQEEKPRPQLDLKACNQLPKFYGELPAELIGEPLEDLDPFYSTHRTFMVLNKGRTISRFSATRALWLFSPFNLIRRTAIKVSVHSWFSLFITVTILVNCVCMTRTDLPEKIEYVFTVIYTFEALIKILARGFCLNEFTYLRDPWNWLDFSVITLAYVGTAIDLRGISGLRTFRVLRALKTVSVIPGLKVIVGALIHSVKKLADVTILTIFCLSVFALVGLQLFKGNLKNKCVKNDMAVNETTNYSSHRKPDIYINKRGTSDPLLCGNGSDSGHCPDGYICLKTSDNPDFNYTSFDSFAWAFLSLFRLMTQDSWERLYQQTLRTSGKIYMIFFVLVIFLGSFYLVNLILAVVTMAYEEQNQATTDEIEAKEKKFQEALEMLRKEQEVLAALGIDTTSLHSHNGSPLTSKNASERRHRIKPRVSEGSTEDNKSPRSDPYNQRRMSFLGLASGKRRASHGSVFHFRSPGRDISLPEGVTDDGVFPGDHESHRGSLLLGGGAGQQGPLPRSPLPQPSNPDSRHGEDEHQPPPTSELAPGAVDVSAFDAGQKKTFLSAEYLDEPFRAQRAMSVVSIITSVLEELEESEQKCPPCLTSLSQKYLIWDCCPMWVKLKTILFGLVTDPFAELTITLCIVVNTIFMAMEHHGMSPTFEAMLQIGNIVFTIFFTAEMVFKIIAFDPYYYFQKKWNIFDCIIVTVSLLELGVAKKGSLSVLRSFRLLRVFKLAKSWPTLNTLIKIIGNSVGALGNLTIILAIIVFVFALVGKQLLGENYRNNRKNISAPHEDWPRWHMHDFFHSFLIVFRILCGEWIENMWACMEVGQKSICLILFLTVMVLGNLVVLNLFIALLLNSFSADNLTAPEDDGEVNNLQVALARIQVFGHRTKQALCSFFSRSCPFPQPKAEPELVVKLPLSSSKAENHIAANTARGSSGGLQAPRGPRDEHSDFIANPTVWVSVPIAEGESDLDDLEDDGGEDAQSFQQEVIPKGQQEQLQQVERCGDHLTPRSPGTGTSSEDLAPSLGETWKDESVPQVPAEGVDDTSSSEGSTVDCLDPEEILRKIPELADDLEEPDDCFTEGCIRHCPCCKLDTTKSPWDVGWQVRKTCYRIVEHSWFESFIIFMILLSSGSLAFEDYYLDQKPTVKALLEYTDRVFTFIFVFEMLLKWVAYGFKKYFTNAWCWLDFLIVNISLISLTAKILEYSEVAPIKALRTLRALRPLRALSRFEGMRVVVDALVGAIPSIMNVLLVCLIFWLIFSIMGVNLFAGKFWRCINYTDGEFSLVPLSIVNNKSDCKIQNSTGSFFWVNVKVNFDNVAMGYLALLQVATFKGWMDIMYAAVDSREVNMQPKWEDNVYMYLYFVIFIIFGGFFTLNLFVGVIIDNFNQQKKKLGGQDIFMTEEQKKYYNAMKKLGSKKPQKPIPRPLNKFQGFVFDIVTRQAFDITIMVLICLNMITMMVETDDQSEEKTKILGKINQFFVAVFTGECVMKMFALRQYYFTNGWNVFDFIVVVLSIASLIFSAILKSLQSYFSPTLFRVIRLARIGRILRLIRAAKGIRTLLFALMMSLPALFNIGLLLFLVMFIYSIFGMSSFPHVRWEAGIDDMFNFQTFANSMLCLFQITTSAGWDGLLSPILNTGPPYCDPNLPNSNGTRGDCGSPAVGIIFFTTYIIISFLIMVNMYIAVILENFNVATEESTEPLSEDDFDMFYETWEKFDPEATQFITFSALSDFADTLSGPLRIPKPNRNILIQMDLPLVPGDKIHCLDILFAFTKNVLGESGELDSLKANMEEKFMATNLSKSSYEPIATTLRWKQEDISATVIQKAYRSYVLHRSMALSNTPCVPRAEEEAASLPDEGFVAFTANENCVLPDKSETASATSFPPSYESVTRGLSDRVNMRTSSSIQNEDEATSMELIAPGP

For `O=c1[nH]cccc1CN1CC2CCCC(C1)C2/C=C/c1ccccc1F` (stereo not shown), the “Inhibitory activity against sodium channels” value in assay [1] is “has an inhibitory activity”. Further, the “Inhibitory activity against ectopic firing” value in assay [2] is given as “inadequate”.
The pIC50 is −log10 of the IC50, conventionally taken in molar units. Higher therefore signals a small IC50. For orientation: ED50 means the midpoint of the dose-response relation. In assay [3], `Cc1nn(C[C@H](F)CN2C3CCC2CC(OCc2cccc(F)c2)C3)c(=O)n1C` (stereo partly drawn) [Example 1, (Endo)-2-{(R)-2-fluoro-3-[3-(3-fluorobenzyloxy)-8-azabicyclo[3.2.1]oct-8-yl]propyl}-4,5-dimethyl-2,4-dihydro[1,2,4]triazol-3-one] gave a pIC50 of 5.49. Also, the ED50 in assay [4] was determined as 0.14 mg/kg.
In the same order, the values of `Cc1nn(C[C@H](F)CN2[C@@H]3CC[C@H]2C[C@@H](OCc2ccccc2F)C3)c(=O)n1C` [Example 4, (Endo)-2-{(R)-2-fluoro-3-[3-(2-fluorobenzyloxy)-8-azabicyclo[3.2.1]oct-8-yl]propyl}-4,5-dimethyl-2,4-dihydro[1,2,4]triazol-3-one] are 5.30 and 0.23 mg/kg.
Regarding `Cc1nn(C[C@H](F)CN2C3CCC2CC(OCc2ccccc2CF)C3)c(=O)n1C` (stereo partly drawn) [Example 6, (Endo)-2-{(R)-2-fluoro-3-[3-(2-fluoromethylbenzyloxy)-8-azabicyclo[3.2.1]oct-8-yl]propyl}-4,5-dimethyl-2,4-dihydro[1,2,4]triazol-3-one], the pIC50 in assay [3] is 5.28. Also, the ED50 in assay [4] worked out at 0.27 mg/kg.
For `Cc1nc(=O)n(C[C@@H](F)CN2C3CCC2CC(OCc2ccc(F)cc2)C3)c(=O)n1C` (stereo partly drawn) [Example 12, (Endo)-3-{(S)-2-fluoro-3-[3-(4-fluorobenzyloxy)-8-azabicyclo[3.2.1]oct-8-yl]propyl}-1,6-dimethyl-1H-[1,3,5]triazine-2,4-dione oxalate], the pIC50 in assay [3] is 5.06. Besides, the ED50 in assay [4] turned out to be 0.28 mg/kg.
In the same order, the values of `Cc1cccc(COC2CC3CCC(C2)N3CC(F)Cn2nc(N(C)C)n(C)c2=O)c1` (stereo not drawn) [Example 25, (Endo)-5-dimethylamino-2-{2-fluoro-3-[3-(3-methylbenzyloxy)-8-azabicyclo[3.2.1]oct-8-yl]propyl}-4-methyl-2,4-dihydro[1,2,4]triazol-3-one] are 6.15 and < 0.1 mg/kg.
Take `Cc1cc(-n2c(C)nn(CC(O)CN3[C@@H]4CC[C@H]3C[C@@H](OCc3ccccc3F)C4)c2=O)on1` (stereo partly drawn) [Example 47, (Endo)-2-{3-[3-(2-fluorobenzyloxy)-8-azabicyclo[3.2.1]oct-8-yl]-2-hydroxypropyl}-5-methyl-4-(3-methyl-isoxazol-5-yl)-2,4-dihydro[1,2,4]triazol-3-one oxalate]: in assay [3], the negative logarithm of the IC50 (pIC50) is 5.89. The ED50 in assay [4] amounted to 0.18 mg/kg.
Consider `O=c1n(-c2ccccc2)cnn1CCCN1[C@@H]2CC[C@H]1C[C@@H](OCc1ccccc1F)C2` [Example 58, (Endo)-2-{3-[3-(2-fluorobenzyloxy)-8-azabicyclo[3.2.1]oct-8-yl]propyl}-4-phenyl-2,4-dihydro[1,2,4]triazol-3-one], for which the pIC50 in assay [3] was 6.89. Moreover, in assay [4], the ED50 was found to be 0.18 mg/kg.
Regarding `CN1CCn2c1nn(CC(F)CN1[C@@H]3CC[C@H]1C[C@@H](OCc1ccc(F)cc1)C3)c2=O` (stereo partly drawn) [Example 112, (Endo)-2-{2-fluoro-3-[3-(4-fluorobenzyloxy)-8-azabicyclo[3.2.1]oct-8-yl]propyl}-7-methyl-2,5,6,7-tetrahydroimidazo[2,1-c][1,2,4]triazol-3-one], the pIC50 in assay [3] was 4.92. In assay [4], the ED50 was 0.29 mg/kg.
In assay [3], `O=c1n(CCCN2[C@@H]3CC[C@H]2C[C@@H](OCc2ccccc2F)C3)nc2n1CCS2` [Example 116, (Endo)-2-{3-[3-(2-fluorobenzyloxy)-8-azabicyclo[3.2.1]oct-8-yl]propyl}-5,6-dihydro-2H-thiazolo[2,3-c][1,2,4]triazol-3-one] showed a pIC50 of 5.24. In addition, the ED50 in assay [4] stood at 0.15 mg/kg.
For `O=c1nc2n(c(=O)n1CCCN1[C@@H]3CC[C@H]1C[C@@H](CCc1ccccc1F)C3)CCCC2` [Example 129, (Endo)-3-(3-{3-[2-(2-fluorophenyl)ethyl)-8-azabicyclo[3.2.1]oct-8-yl}propyl]-6,7,8,9-tetrahydropyrido[1,2-a][1,3,5]triazine-2,4-dione oxalate], the pIC50 in assay [3] was 5.01. In addition, the ED50 in assay [4] is 0.13 mg/kg.
In the same order, the values of `O=c1n(CCCN2[C@@H]3CC[C@H]2C[C@@H](OCc2ccccc2F)C3)nc2ccccn12` [Example 145, (Endo)-2-{3-[3-(2-fluorobenzyloxy)-8-azabicyclo[3.2.1]oct-8-yl]propyl}-2H-[1,2,4]triazolo[4,3-a]pyridin-3-one] are 6.28 and 0.28 mg/kg.
Take `O=c1n(CCCN2[C@@H]3CC[C@H]2C[C@@H](CCc2ccccc2F)C3)nc2ccccn12` [Example 149, (Endo)-2-(3-{3-[2-(2-fluorophenyl)ethyl)-8-azabicyclo[3.2.1]oct-8-yl}propyl]-2H-[1,2,4]triazolo[4,3-a]pyridin-3-one]: the pIC50 in assay [3] was 6.55. The ED50 in assay [4] stood at 0.15 mg/kg.
In the same order, the values of `COC(CN1[C@@H]2CC[C@H]1C[C@@H](OCc1ccccc1F)C2)Cn1nc2ccccn2c1=O` (stereo partly drawn) [Example 157, (Endo)-2-{3-[3-(2-fluorobenzyloxy)-8-azabicyclo[3.2.1]oct-8-yl]-2-methoxypropyl}-2H-[1,2,4]triazolo[4,3-a]pyridin-3-one] are 5.92 and 0.28 mg/kg.
In turn, `Cn1ccn2c(=O)n(CCCN3[C@@H]4CC[C@H]3C[C@@H](OCc3ccccc3F)C4)c(=O)nc12` [Example 174, (Endo)-3-{3-[3-(2-fluorobenzyloxy)-8-azabicyclo[3.2.1]oct-8-yl]propyl}-8-methyl-8H-imidazo[1,2-a][1,3,5]triazine-2,4-dione] showed a negative-log IC50 (pIC50) in assay [3] of 6.05. In addition, the ED50 in assay [4] came to 0.21 mg/kg.
On to `Cc1nc2ccccn2c(=O)c1CCN1[C@@H]2CC[C@H]1C[C@@H](OCc1ccccc1F)C2` [Example 179, (Endo)-3-{2-[3-(2-fluorobenzyloxy)-8-azabicyclo[3.2.1]oct-8-yl]ethyl}-2-methylpyrido[1,2-a]pyrimidin-4-one oxalate], for which, in assay [3], the pIC50 is 5.06. Also, in assay [4], the ED50 amounted to 0.14 mg/kg.
`Cc1nc(C)n(C)c(=O)c1CCN1[C@@H]2CC[C@H]1C[C@@H](OCc1ccccc1F)C2` [Example 184, (Endo)-5-{2-[3-(2-fluorobenzyloxy)-8-azabicyclo[3.2.1]oct-8-yl]ethyl}-2,3,6-trimethyl-3H-pyrimidin-4-one oxalate] showed a pIC50 in assay [3] of 5.12. In addition, the ED50 in assay [4] worked out at 0.19 mg/kg.
